Assay results taken from US4900730A, “Preparation which promotes the absorption of peptides” (priority 1981, dated 1990).

Assay: Rectal circulation: Cephalothin disappeared by absorption (Examples 10-14, 16-18)
Description: The experiments were conducted similarly as in Example 1. […] Each sample was diluted and the quantity of Cephalothin disappeared was determined by UV-spectrophotometer of high-speed liquid chromatography.

[1] = Table 4, promoter 0.1% W/V, 0.1% W/V Cephalothin.Na, four-fold tonic, after one hour
[2] = Table 4, promoter 0.1% W/V, 0.1% W/V Cephalothin.Na, isotonic, after one hour
[3] = Table 4, promoter 0.1% W/V, 0.1% W/V Cephalothin.Na, two-fold tonic, after one hour
[4] = Table 5, promoter 0.1% W/V, 0.1% W/V Cephalothin.Na, four-fold tonic, one hour

For `O=P(O)(O)OC[C@H]1O[C@](O)(COP(=O)(O)O)[C@@H](O)[C@@H]1O` [Fructose-1,6-diphosphoric acid], the “Cephalothin disappeared by absorption, Osmotic pressure X 1” value (rat, in vivo) was 4.1 percents, the “Cephalothin disappeared by absorption, Osmotic pressure X 2” value (rat, in vivo) was 7.5 percents and the “Cephalothin disappeared by absorption, Osmotic pressure X 4” value (rat, in vivo) was 13.3 percents.
With `CCC(=O)C(=O)O` [α-ketobutyric acid] the “Cephalothin disappeared by absorption, Osmotic pressure (%) X 1” value (“Cephalothin disappeared … (%) X 1” for short) (rat, in vivo) was 11.2%, the “Cephalothin disappeared by absorption, Osmotic pressure (%) X 2” value (“Cephalothin disappeared … (%) X 2” below) (rat, in vivo) was 18.3% and the “Cephalothin disappeared by absorption, Osmotic pressure (%) X 4” value (from here on “Cephalothin disappeared … (%) X 4”) (rat, in vivo) was 30.9%.
For `O=C(O)/C=C(\CC(=O)O)C(=O)O` [Trans-aconitic acid, trans-aconitic acid], the “Cephalothin disappeared … (%) X 4” value [1] was 27.8%, the “Cephalothin disappeared … (%) X 1” value [2] was 10.5% and the “Cephalothin disappeared … (%) X 2” value [3] was 18.6%.
For `O=C(O)CC(O)C(=O)O` (stereo not shown) [Malic acid, malic acid], the “Cephalothin disappeared by absorption, Osmotic pressure X 4” value (Table 6, promoter 0.1 W/V %, 0.1 W/V % Cephalothin.Na, four-fold tonic, one hour) was 18.8 percents, the “Cephalothin disappeared by absorption, Osmotic pressure X 1” value (Table 6, promoter 0.1 W/V %, 0.1 W/V % Cephalothin.Na, isotonic, one hour) was 7.2 percents and the “Cephalothin disappeared by absorption, Osmotic pressure X 2” value (Table 6, promoter 0.1 W/V %, 0.1 W/V % Cephalothin.Na, two-fold tonic, one hour) was 12.3 percents.
With `NCC(=O)NC(CC(=O)O)C(=O)O` (racemic) [Glycyl-DL-aspartic acid, glycyl-DL-aspartic acid] the “Cephalothin disappeared by absorption, Osmotic pressure X 1” value (rat, in vivo) was 8.6 percents and the “Cephalothin disappeared by absorption, Osmotic pressure X 4” value (rat, in vivo) was 19.0 percents.
With `O=C(O)CCC(=O)C(=O)O` [α-ketoglutaric acid] the “Cephalothin disappeared … (%) X 4” value [4] was 25.6%.
With `O=C(O)CCCC(=O)O` [Glutaric acid, glutaric acid] the “Cephalothin disappeared … (%) X 4” value [1] was 15.2%, the “Cephalothin disappeared … (%) X 1” value [2] was 5.7% and the “Cephalothin disappeared … (%) X 2” value [3] was 9.3%.
In the case of `O=C(O)[C@@H]1C[C@@H](O)CN1` (racemic) [DL-hydroxyproline], the “Cephalothin disappeared by absorption, Osmotic pressure X 4” value (Table 11, promoter 0.5% W/V, Example 10 repeated, four-fold tonic) is reported as 12.9 percents and the “Cephalothin disappeared by absorption, Osmotic pressure X 1” value (Table 11, promoter 0.5% W/V, Example 10 repeated, isotonic) is reported as 5.5 percents.
For `CCC(C(=O)O)C(=O)O` [Ethylmalonic acid, ethylmalonic acid], the “Cephalothin disappeared … (%) X 1” value (rat, in vivo) was 12.3%, the “Cephalothin disappeared … (%) X 2” value (rat, in vivo) was 24.2% and the “Cephalothin disappeared … (%) X 4” value (rat, in vivo) was 36.9%.
For `O=CC(=O)[O-].[Na+]` [Sodium glyoxalate, sodium glyoxalate], the “Cephalothin disappeared … (%) X 4” value [4] was 13.1% and the “Cephalothin disappeared … (%) X 1” value (Table 5, promoter 0.1% W/V, 0.1% W/V Cephalothin.Na, isotonic, one hour) was 4.9%.
With `NC(C(=O)O)c1ccccc1` (racemic) [DL-phenylglycine] the “Cephalothin disappeared by absorption, Osmotic pressure X 4” value (rat, in vivo) was 29.3 percents.
For `O=C(O)c1c(O)cccc1O` [2,6-dihydroxybenzoic acid], the “Cephalothin.Na disappeared by absorption, Osmotic pressure X 1” value (rat, in vivo) was 9.5 percents, the “Cephalothin.Na disappeared by absorption, Osmotic pressure X 2” value (rat, in vivo) was 15.3 percents and the “Cephalothin.Na disappeared by absorption, Osmotic pressure X 4” value (rat, in vivo) was 22.9 percents.
For `O=C[C@H](O)[C@@H](O)[C@@H](O)[C@H](O)C(=O)O` [Galactronic acid, galacturonic acid], the “Cephalothin disappeared by absorption, Osmotic pressure X 1” value (rat, in vivo) was 5.8 percents, the “Cephalothin disappeared by absorption, Osmotic pressure X 2” value (rat, in vivo) was 10.5 percents and the “Cephalothin disappeared by absorption, Osmotic pressure X 4” value (rat, in vivo) was 16.1 percents.
For `CCC(NC(=O)CN)C(=O)O` (racemic) [Glycyl-DL-aminobutyric acid, glycyl-DL-aminobutyric acid], the “Cephalothin disappeared by absorption, Osmotic pressure X 1” value (rat, in vivo) was 11.0 percents and the “Cephalothin disappeared by absorption, Osmotic pressure X 4” value (rat, in vivo) was 30.4 percents.
In the case of `O=C(O)CNc1ccccc1` [N--phenylglycine, N-phenylglycine], the “Cephalothin disappeared by absorption, Osmotic pressure X 1” value (rat, in vivo) is reported as 12.0 percents, the “Cephalothin disappeared by absorption, Osmotic pressure X 2” value (rat, in vivo) is reported as 22.3 percents and the “Cephalothin disappeared by absorption, Osmotic pressure X 4” value (rat, in vivo) is reported as 30.8 percents.
